Results taken from US20070117743A1, “New antitumoral compounds” (priority 2003, published 2007).

Columns and labels:
Type in all cases: cell-based, human
[1] = system: LoVo-Dox; test: SRB colorimetric assay of cell growth and viability, LoVo-Dox; conditions: LOVO-DOX, 48 hours exposure
How it was run: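 Here, cells grow drug-free for 18 h, then receive sample dilutions from 10 down to 10^−8 μg/mL for 48 h at 37° C. Protein-bound SRB is solubilized in Tris and quantified at 490 nm.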

[2] = system: PANC-1; test: SRB colorimetric assay of cell growth and viability, PANC-1; conditions: PANC-1, 48 hours exposure
[3] = system: IGROV-1; test: SRB colorimetric assay of cell growth and viability, IGROV-1; conditions: 48 hours exposure, SRB
[4] = system: LNCaP; test: SRB colorimetric assay of cell growth and viability, LNCaP; conditions: 48 hours exposure, SRB
From the text: The finality of this assay is to interrupt the growth of a “in vitro” tumor cell culture by means a continued exhibition of the cells to the sample to be testing.
This form of the assay employs 96 well cell culture microplates of 9 mm diameter (Faircloth, 1988; Mosmann, 1983). Most of the cell lines are obtained from American Type Culture Collection (ATCC) derived from different human cancer types.
Cells are maintained in RPMI 1640 10% FBS, supplemented with 0.1 g/l penicillin and 0.1 g/l streptomycin sulfate and then incubated at 37° C., 5% CO2 and 98% humidity. For the experiments, cells were harvested from subconfluent cultures using trypsin and resuspended in fresh medium before plating.
Cells are seeded in 96 well microtiter plates, at 5×10^3 cells per well in aliquots of 195 μL medium, and they are allowed to attach to the plate surface by growing in drug free medium for 18 hours. Afterward, samples are added in aliquots of 5 μL in a ranging from 10 to 10^−8 μg/mL, dissolved in DMSO:EtOH:PBS (0.5:0.5:99). After 48 hours exposure, the antitumor effect are measured by the SRB methodology: cells are fixed by adding 50 μL of cold 50% (wt/vol) trichloroacetic acid (TCA) and incubating for 60 minutes at 4° C. Plates are washed with deionized water and dried. One hundred μL of SRB solution (0.4% wt/vol in 1% acetic acid) is added to each microtiter well and incubated for 10 minutes at room temperature. Unbound SRB is removed by washing with 1% acetic acid. Plates are air dried and bound stain is solubilized with Tris buffer. Optical densities are read on a automated spectrophotometric plate reader at a single wavelength of 490 nm.
The values for mean+/− SD of data from triplicate wells are calculated. Some parameters for cellular responses can be calculated: GI=growth inhibition, TGI=total growth inhibition (cytostatic effect) and LC=cell killing (cytotoxic effect).

[5] = system: HeLa; test: SRB colorimetric assay of cell growth and viability, HeLa; conditions: HELA, 48 hours exposure
[6] = system: HeLa-APL; test: SRB colorimetric assay of cell growth and viability, HeLa-APL; conditions: HELA-APL, 48 hours exposure
[7] = system: IGROV-ET; test: SRB colorimetric assay of cell growth and viability, IGROV-ET; conditions: 48 hours exposure, SRB
[8] = system: LoVo; test: SRB colorimetric assay of cell growth and viability, LoVo; conditions: LOVO, 48 hours exposure
[9] = system: SK-MEL-28; test: SRB colorimetric assay of cell growth and viability, SK-MEL-28; conditions: 48 hours exposure, SRB
[10] = system: A-549; test: SRB colorimetric assay of cell growth and viability, A-549; conditions: A-549, 48 hours exposure
[11] = system: HT-29; test: SRB colorimetric assay of cell growth and viability, HT-29; conditions: HT-29, 48 hours exposure
[12] = system: K-562; test: SRB colorimetric assay of cell growth and viability, K-562; conditions: K-562, 48 hours exposure
[13] = system: DU-145; test: SRB colorimetric assay of cell growth and viability, DU-145; conditions: 48 hours exposure, SRB

C/C=C1\NC(=O)[C@H](Cc2ccccc2)NC(=O)[C@@H](C(C)C)NC(=O)[C@@H]([C@@H](C)CC)NC(=O)[C@H](NC(=O)[C@H](NC(=O)[C@H](CCCN)NC(=O)[C@@H]2CCCN2C(=O)[C@H](NC(=O)[C@@H](NC(=O)[C@@H](NC(=O)[C@H](NC(=O)CC[C@@H](C)CC)C(C)C)[C@@H](C)O)C(C)C)C(C)C)[C@@H](C)CC)[C@@H](C)OC(=O)[C@H](C(C)C)NC1=O [Compound 59, [Pro^9, (4S)-MeHex^14]-KF]
4.52 µM: GI50 ([4]; read-out: GI50 LN-caP)
≥ 6.76 µM: GI50 [1] | CC50 ([1]; read-out: LC50 LOVO-DOX) | GI50 [2] | CC50 ([2]; read-out: LC50 PANC-1) | GI50 [3] | LC50 (concentration causing 50% net cell killing) [3] | CC50 ([4]; read-out: LC50 LN-caP) | GI50 [5] | CC50 ([5]; read-out: LC50 HELA) | GI50 [6] | CC50 ([6]; read-out: LC50 HELA-APL) | GI50 [7] | CC50 ([7]; read-out: LC50 IGROV-ET) | CC50 ([8]; read-out: LC50 LOVO) | GI50 [9] | CC50 ([9]; read-out: LC50 MEL-28) | GI50 ([10]; read-out: GI50 A-549) | CC50 ([10]; read-out: LC50 A-549) | GI50 ([11]; read-out: GI50 HT-29) | CC50 ([11]; read-out: LC50 HT-29) | GI50 [12] | CC50 ([12]; read-out: LC50 K-562) | GI50 [13] | LC50 (concentration causing 50% net cell kill) [13]
5.28 µM: GI50 [8]
6.76E−06 Molar: TGI LOVO-DOX [1] | TGI PANC-1 [2] | TGI IGROV [3] | TGI LN-caP [4] | TGI HELA [5] | TGI HELA-APL [6] | TGI IGROV-ET [7] | TGI LOVO [8] | TGI MEL-28 [9] | TGI A-549 [10] | TGI HT-29 [11] | TGI K-562 [12] | TGI DU-145 [13]
